# Laboratory results from PubChem BioAssay (NCI).
#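 Cultured in 96-well plates, cells were exposed to test compound for 48 hours across five concentrations. TGI: total growth inhibition.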
# Assays:
# Experiment in all cases: NCI-60 cell line screen, 48 h
# [1] = test system: 786-0 renal
# [2] = test system: A498 renal
# [3] = test system: A549 NSCLC
# [4] = test system: ACHN renal
# [5] = test system: BT-549 breast
# [6] = test system: CCRF-CEM leukemia
# [7] = test system: COLO 205 colon
# [8] = test system: DU-145 prostate
# [9] = test system: HCC-2998 colon
# [10] = test system: HCT-116 colon
# [11] = test system: HCT-15 colon
# [12] = test system: HL-60(TB) leukemia
# [13] = test system: HOP-62 NSCLC
# [14] = test system: HS 578T breast
# [15] = test system: HT29 colon
# [16] = test system: IGROV1 ovarian
# [17] = test system: K-562 leukemia
# [18] = test system: KM12 colon
# [19] = test system: LOX IMVI melanoma
# [20] = test system: M14 melanoma
# [21] = test system: MALME-3M melanoma
# [22] = test system: MCF7 breast
# [23] = test system: MDA-MB-231 breast
# [24] = test system: MDA-MB-435
# [25] = test system: MDA-N
# [26] = test system: MOLT-4 leukemia
# [27] = test system: NCI-H226 lung
# [28] = test system: NCI-H23 lung
# [29] = test system: NCI-H460 lung
# [30] = test system: NCI-H522 lung
# [31] = test system: NCI/ADR-RES ovarian
# [32] = test system: OVCAR-3 ovarian
# [33] = test system: OVCAR-4 ovarian
# [34] = test system: OVCAR-5 ovarian
# [35] = test system: OVCAR-8 ovarian
# [36] = test system: PC-3 prostate
# [37] = test system: RPMI-8226 leukemia
# [38] = test system: RXF 393 renal
# [39] = test system: SF-268 CNS
# [40] = test system: SF-295 CNS
# [41] = test system: SF-539 CNS
# [42] = test system: SK-MEL-2 melanoma
# [43] = test system: SK-MEL-28 melanoma
# [44] = test system: SK-MEL-5 melanoma
# [45] = test system: SK-OV-3 ovarian
# [46] = test system: SN12C renal
# [47] = test system: SNB-19 CNS
# [48] = test system: SNB-75 CNS
# [49] = test system: SR leukemia
# [50] = test system: SW-620 colon
# [51] = test system: T-47D breast
# [52] = test system: TK-10 renal
# [53] = test system: U251 CNS
# [54] = test system: UACC-257 melanoma
# [55] = test system: UACC-62 melanoma
# [56] = test system: UO-31 renal
# [57] = test system: CAKI-1 renal
# [58] = test system: EKVX NSCLC
# [59] = test system: HOP-92 NSCLC
smiles,measurement,setting,value
CC1(C)CCCCC1/C=C/C(CC(O)(C(F)(F)F)C(F)(F)F)=N\Nc1ccc([N+](=O)[O-])cc1[N+](=O)[O-] (configuration not stated),TGI,[1],4.7 µM
same,TGI,[2],6.96 µM
same,TGI,[3],3.59 µM
same,TGI,[4],3.17 µM
same,TGI,[5],1.99 µM
same,TGI,[6],4.91 µM
same,TGI,[7],10.8 µM
same,TGI,[8],13.4 µM
same,TGI,[9],> 100 µM
same,TGI,[10],6.2 µM
same,TGI,[11],> 100 µM
same,TGI,[12],> 100 µM
same,TGI,[13],10.7 µM
same,TGI,[14],40.6 µM
same,TGI,[15],11.3 µM
same,TGI,[16],15.8 µM
same,TGI,[17],11.1 µM
same,TGI,[18],9.75 µM
same,TGI,[19],10.6 µM
same,TGI,[20],17.2 µM
same,TGI,[21],48.3 µM
same,TGI,[22],5.42 µM
same,TGI,[23],9.62 µM
same,TGI,[24],7.9 µM
same,TGI,[25],11.9 µM
same,TGI,[26],5.78 µM
same,TGI,[27],2.81 µM
same,TGI,[28],0.778 µM
same,TGI,[29],6.73 µM
same,TGI,[30],13.1 µM
same,TGI,[31],> 100 µM
same,TGI,[32],14.5 µM
same,TGI,[33],18.7 µM
same,TGI,[34],13.1 µM
same,TGI,[35],14.7 µM
same,TGI,[36],5.32 µM
same,TGI,[37],1.27 µM
same,TGI,[38],1.85 µM
same,TGI,[39],3 µM
same,TGI,[40],9.01 µM
same,TGI,[41],0.973 µM
same,TGI,[42],30 µM
same,TGI,[43],18.8 µM
same,TGI,[44],1.24 µM
same,TGI,[45],14.8 µM
same,TGI,[46],31.7 µM
same,TGI,[47],19 µM
same,TGI,[48],11.7 µM
same,TGI,[49],> 100 µM
same,TGI,[50],11.4 µM
same,TGI,[51],2.99 µM
same,TGI,[52],15.5 µM
same,TGI,[53],10.7 µM
same,TGI,[54],7.55 µM
same,TGI,[55],13.9 µM
same,TGI,[56],4.15 µM
Cc1ccc(C2=NN=C3C(c4ccccc4)=Nc4ccccc4N3C2)cc1,TGI,[1],> 50.7 µM
same,TGI,[2],> 100 µM
same,TGI,[3],> 100 µM
same,TGI,[4],> 100 µM
same,TGI,[5],> 100 µM
same,TGI,[57],> 100 µM
same,TGI,[7],> 100 µM
same,TGI,[8],32.3 µM
same,TGI,[58],> 42.6 µM
same,TGI,[9],> 100 µM
same,TGI,[10],> 83.7 µM
same,TGI,[11],> 100 µM
same,TGI,[12],9.64 µM
same,TGI,[13],> 63.8 µM
same,TGI,[59],> 72.9 µM
same,TGI,[14],40 µM
same,TGI,[15],> 81.1 µM
same,TGI,[16],> 100 µM
same,TGI,[17],> 100 µM
same,TGI,[18],> 100 µM
same,TGI,[19],> 100 µM
same,TGI,[20],34.4 µM
same,TGI,[21],47.2 µM
same,TGI,[22],> 89.3 µM
same,TGI,[23],> 100 µM
same,TGI,[24],> 100 µM
same,TGI,[25],> 100 µM
same,TGI,[26],> 35.5 µM
same,TGI,[27],> 100 µM
same,TGI,[28],> 100 µM
same,TGI,[29],18.6 µM
same,TGI,[30],26.8 µM
same,TGI,[31],> 100 µM
same,TGI,[32],10.4 µM
same,TGI,[33],21.8 µM
same,TGI,[34],99.6 µM
same,TGI,[35],> 100 µM
same,TGI,[36],> 100 µM
same,TGI,[37],> 73 µM
same,TGI,[38],33.7 µM
same,TGI,[39],> 49.4 µM
same,TGI,[40],> 100 µM
same,TGI,[41],> 100 µM
same,TGI,[42],> 100 µM
same,TGI,[43],> 100 µM
same,TGI,[44],32.8 µM
same,TGI,[45],85.7 µM
same,TGI,[46],> 100 µM
same,TGI,[47],> 78.3 µM
same,TGI,[49],> 100 µM
same,TGI,[50],> 100 µM
same,TGI,[51],> 100 µM
same,TGI,[52],1.78 µM
same,TGI,[53],> 81.1 µM
same,TGI,[54],33.6 µM
same,TGI,[55],> 100 µM
same,TGI,[56],> 42 µM
O=C(O)[C@@]1(Cc2ccc(O)cc2)C[C@@H]2Cc3ccccc3N2N1,TGI,[1],> 100 µM
same,TGI,[2],> 100 µM
same,TGI,[3],> 100 µM
same,TGI,[4],> 100 µM
same,TGI,[5],> 100 µM
same,TGI,[57],> 100 µM
same,TGI,[6],> 100 µM
same,TGI,[7],> 100 µM
same,TGI,[8],> 100 µM
same,TGI,[58],> 100 µM
same,TGI,[10],> 100 µM
same,TGI,[11],> 100 µM
same,TGI,[12],> 100 µM
same,TGI,[13],> 100 µM
same,TGI,[59],> 100 µM
same,TGI,[14],> 100 µM
same,TGI,[15],> 100 µM
same,TGI,[16],> 100 µM
same,TGI,[18],> 100 µM
same,TGI,[19],> 100 µM
same,TGI,[20],> 100 µM
same,TGI,[21],> 100 µM
same,TGI,[22],> 100 µM
same,TGI,[23],> 100 µM
same,TGI,[24],> 100 µM
same,TGI,[25],> 100 µM
same,TGI,[26],> 100 µM
same,TGI,[27],> 100 µM
same,TGI,[28],> 100 µM
same,TGI,[30],> 100 µM
same,TGI,[31],> 100 µM
same,TGI,[32],> 100 µM
same,TGI,[33],> 100 µM
same,TGI,[34],> 100 µM
same,TGI,[35],> 100 µM
same,TGI,[36],> 100 µM
same,TGI,[37],> 100 µM
same,TGI,[39],> 100 µM
same,TGI,[40],> 100 µM
same,TGI,[41],> 100 µM
same,TGI,[42],> 100 µM
same,TGI,[43],> 100 µM
same,TGI,[44],> 100 µM
same,TGI,[45],> 100 µM
same,TGI,[46],> 100 µM
same,TGI,[47],> 100 µM
same,TGI,[49],> 100 µM
same,TGI,[50],> 100 µM
same,TGI,[51],> 100 µM
same,TGI,[52],> 100 µM
same,TGI,[53],> 100 µM
same,TGI,[54],> 100 µM
same,TGI,[55],> 100 µM
same,TGI,[56],> 100 µM
